This note sets out measurements from patent publication US20210290597A1, “METHOD OF TREATING A CONDITION ASSOCIATED WITH NEURODEGENERATION USING INHIBITORS OF OAT3” (Neuropore Therapies, Inc., priority 2018, published 2021).

Common to all, as to format: in vivo
Experiment [1] relates to PK-resistant alpha-synuclein. The experiment in a line: PK-resistant (insoluble) alpha-synuclein IHC, L61 ASYN transgenic mice, 1 month study. Particulars: for reduction of PK-resistant alpha synuclein levels in cortex compared to vehicle-treated mice: L61 ASYN transgenic mice. The method, then:
(§1) Multiple in vivo administration studies of Compound 1 were carried out in the Line 61 (L61) mThy1-alpha-synuclein transgenic mouse model of Parkinson's disease (PD). The mThy1-alpha-synuclein transgenic mouse model overexpresses wild-type human ASYN under the Thy-1 promoter (commonly referred to as Line 61 transgenic mice; Rockenstein et al., 2002). This transgenic mouse develops extensive accumulation of alpha-synuclein (ASYN) in areas relevant to PD (Rockenstein et al., 2002; Chesselet et al., 2012; Games et al., 2013), neurodegeneration including dopaminergic neurodegeneration, reduced dopamine (DA) and TH loss in the striatum (Masliah et al., 2000; Lam et al., 2011), and motor deficits (Fleming et al., 2004). Male transgenic and non-transgenic littermates (3-3.5 mo) were used for all in vivo studies presented here.
Alpha-synuclein (ASYN) is a neuronal protein whose dysregulation has been implicated in the pathogenesis of PD. The effects of Compound 1 on alpha-synuclein aggregation were assessed in both L61 ASYN transgenic and non-transgenic mice in a 1 month administration study. L61 ASYN transgenic mice (36 total mice, n=8-11 mice per treatment group) were injected (i.p.) daily with 1, 5, or 10 mg/kg of Compound 1 or a vehicle control (5% DMSO+20% Cremphor EL+0.9% normal saline) for 1 month. […] At the end of one month, the mice were sacrificed, and immunohistochemical (IHC) detection of total alpha-synuclein deposits, insoluble alpha-synuclein deposits (PK+resistant), microtubule-associated protein 1A/1B-light chain 3 (LC3), and monomeric alpha-synuclein levels were assessed in the harvested brain tissues.
The quantification and IHC staining of PK-resistant alpha-synuclein were performed using known techniques (Rockenstein et al., J Neurosci Res. 2002, 68(5):568-78; Tanji et al., Acta Neuropathol. 2010, 120, 145-154; Nuber et al., Brain. 2013 February; 136(Pt 2):412-32).

The next experiment relates to amyloid beta. The experiment is described as follows: Amyloid beta staining (6E10), L41 APP transgenic mice. Particulars: 5 mg/kg daily i.p. The method, then: As described earlier, Line 41 transgenic mice express high levels of the mutant hAPP751 and develop mature plaques in the cortex, hippocampus, thalamus and olfactory region of mouse brain. The effects of Compound 1 on Amyloid beta plaque formation were assessed in both L41 APP transgenic and non-transgenic mice in a 1 month administration study. After 30 days, the mice were sacrificed, and immunofluorescence (IF) detection of amyloid beta were assessed in the harvested brain tissues.
The harvested brain tissues were drop fixed using 4% PFA and sectioned on a vibratome, and representative sections containing the neuropil of cortex, hippocampus and striatum were assessed for amyloid beta with standard IHC staining.
On approximately day 30, all subjects were euthanized within 2 hours of the last treatment and brain and other samples were collected. Brains were removed and divided sagitally. […]
Prepared slides were imaged at 40× using a high-resolution Hamamatsu Nanozoomer™ scanner located in the Microscopy Core in the UCSD Department of Neurosciences. Digital images were then transferred to Neuropore and analyzed using the Halo® imaging software package (Indica Labs, Corrales, N. Mex.). […] Images were evaluated for specimen and imaging problems and any issues were noted prior to unblinding of samples and statistical analyses.

A further experiment concerns total alpha-synuclein. The experiment is described as follows: Total alpha-synuclein IHC, L61 ASYN transgenic mice, 1 month study. The conditions noted are these: for reduction of total alpha-synuclein level in cortex compared to vehicle control: L61 ASYN transgenic mice. The method, then:
as §1
Alpha-synuclein (ASYN) is a neuronal protein whose dysregulation has been implicated in the pathogenesis of PD. The effects of Compound 1 on alpha-synuclein aggregation were assessed in both L61 ASYN transgenic and non-transgenic mice in a 1 month administration study. L61 ASYN transgenic mice (36 total mice, n=8-11 mice per treatment group) were injected (i.p.) daily with 1, 5, or 10 mg/kg of Compound 1 or a vehicle control (5% DMSO+20% Cremphor EL+0.9% normal saline) for 1 month. Non-transgenic mice (18 total mice, n=8-11 mice per treatment group) were used as a control and were injected daily (i.p.) with 10 mg/kg of Compound 1 or a vehicle control (5% DMSO+20% Cremphor EL+0.9% normal saline) per day for 1 month. At the end of one month, the mice were sacrificed, and immunohistochemical (IHC) detection of total alpha-synuclein deposits, insoluble alpha-synuclein deposits (PK+resistant), microtubule-associated protein 1A/1B-light chain 3 (LC3), and monomeric alpha-synuclein levels were assessed in the harvested brain tissues.
The quantification and IHC staining of total alpha-synuclein were performed using known techniques (Rockenstein et al., J Neurosci Res. 2002, 68(5):568-78; Tanji et al., Acta Neuropathol. 2010, 120, 145-154; Nuber et al., Brain. 2013 February; 136(Pt 2):412-32).

The test system of the next experiment is monomeric ASYN. The experiment in a line: Monomeric ASYN in brain homogenates, L61 ASYN transgenic mice (ProteinSimple western). Particulars: 1, 5 or 10 mg/kg per day i.p., 1 month. The method, then:
Multiple in vivo administration studies of Compound 1 were carried out in the Line 61 (L61) mThy1-alpha-synuclein transgenic mouse model of Parkinson's disease (PD). The mThy1-alpha-synuclein transgenic mouse model overexpresses wild-type human ASYN under the Thy-1 promoter (commonly referred to as Line 61 transgenic mice; Rockenstein et al., 2002). […]
Alpha-synuclein (ASYN) is a neuronal protein whose dysregulation has been implicated in the pathogenesis of PD. The effects of Compound 1 on alpha-synuclein aggregation were assessed in both L61 ASYN transgenic and non-transgenic mice in a 1 month administration study. […] At the end of one month, the mice were sacrificed, and immunohistochemical (IHC) detection of total alpha-synuclein deposits, insoluble alpha-synuclein deposits (PK+resistant), microtubule-associated protein 1A/1B-light chain 3 (LC3), and monomeric alpha-synuclein levels were assessed in the harvested brain tissues.
Biochemical evaluations were conducted using a ProteinSimple© western biochemical evaluation. Briefly, samples were mixed with pre-calculated volumes of 0.1× Sample Buffer and 5× Fluorescent Master Mix to make a final sample concentration of 0.4 mg/mL in 10 μL solution for signal optimization and evaporation reduction. […]

Setting [2] is: 1, 5 or 10 mg/kg per day i.p., statistically significant.

Turning to `O=S(=O)(c1ccc(-n2cn[nH]c2=S)cc1)c1ccc(Cl)c(C(F)(F)F)c1` [Compound 1, 4-(4-((4-chloro-3-(trifluoromethyl)phenyl)sulfonyl)phenyl)-2,4-dihydro-3H-1,2,4-triazole-3-thione], the “reduction of PK-resistant alpha synuclein levels in cortex compared to vehicle-treated mice” value is recorded as 37% in experiment [1] (5 mg/kg daily i.p.) and 36% in experiment [1] (10 mg/kg daily i.p.). Besides, the “insoluble alpha-synuclein deposits (PK+resistant) in cortex, hippocampus and striatum” value in experiment [1] (setting [2]) was “reduced the insoluble alpha-synuclein deposits”. The “amyloid beta level vs vehicle-treated Line 41 mice” value with amyloid beta is “reduces the amyloid beta level in a statistically significant manner”. The “reduction of total alpha-synuclein level in cortex compared to vehicle control” value in the experiment on total alpha-synuclein (1 mg/kg daily i.p.) is 13%; with total alpha-synuclein (5 mg/kg daily i.p.), 32%; with total alpha-synuclein (10 mg/kg daily i.p.) it was 38%. Moreover, in the experiment with total alpha-synuclein (setting [2]), the “total ASYN in the neuropil of cortex, hippocampus and striatum vs vehicle” value is reported as “reduced total ASYN”. For the same molecule, in the experiment with monomeric ASYN, the “cortical and hippocampal levels of monomeric ASYN in cytosolic fraction of brain homogenates” value was “reduced”.
